Measured values from ChEMBL document CHEMBL1201862, “PubChem BioAssay data set” (2004).
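Briefly, cells in 96-well plates were exposed to five compound concentrations for 48 h, and endpoints were estimated by linear interpolation. GI50 = concentration required for 50% inhibition of growth.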 Calls of active or inactive are those of the source. Rule as the data show it: active = GI50 up to about 1.1 µM and inactive = higher.

Legend:
Assay in all cases: NCI-60 cell line screen, 48 h
A549 = tested on: A549
CAKI-1 = tested on: CAKI-1
DU-145 = tested on: DU-145
HCC 2998 = tested on: HCC 2998
KM12 = tested on: KM12
LOX IMVI = tested on: LOX IMVI
M14 = tested on: M14
MCF7 = tested on: MCF7
NCI-H226 = tested on: NCI-H226
NCI-H23 = tested on: NCI-H23
PC-3 = tested on: PC-3
SF-268 = tested on: SF-268
SF-539 = tested on: SF-539
SK-MEL-2 = tested on: SK-MEL-2
SNB-19 = tested on: SNB-19
SW-620 = tested on: SW-620
T47D = tested on: T47D
TK-10 = tested on: TK-10
UACC-62 = tested on: UACC-62
UO-31 = tested on: UO-31

Row | SMILES | GI50 (A549) | GI50 (CAKI-1) | GI50 (DU-145) | GI50 (HCC 2998) | GI50 (KM12) | GI50 (LOX IMVI) | GI50 (M14) | GI50 (MCF7) | GI50 (NCI-H226) | GI50 (NCI-H23) | GI50 (PC-3) | GI50 (SF-268) | GI50 (SF-539) | GI50 (SK-MEL-2) | GI50 (SNB-19) | GI50 (SW-620) | GI50 (T47D) | GI50 (TK-10) | GI50 (UACC-62) | GI50 (UO-31)
1 | FC(F)(F)c1ccccc1N1CCN(c2nc(-c3cccs3)nc3ccc(Br)cc23)CC1 | 33.8 µM (inactive) | 21.6 µM (inactive) | 63.4 µM (inactive) | 4.58 µM (inactive) | 13.4 µM (inactive) | 34.7 µM (inactive) | 38.7 µM (inactive) | 1.06 µM (active) | 30.8 µM (inactive) | 34.4 µM (inactive) | 11.7 µM (inactive) | 48.8 µM (inactive) | 97.3 µM (inactive) | 24.9 µM (inactive) | 50.7 µM (inactive) | 38.6 µM (inactive) | 2.37 µM (inactive) | 15.8 µM (inactive) | 23 µM (inactive) | 47.8 µM (inactive)
2 | CCOC1C=CC(=O)C(CO)O1 (stereo not given) | 17.6 µM (inactive) | 13.4 µM (inactive) | 15.8 µM (inactive) | 17.4 µM (inactive) | 16.4 µM (inactive) | 5.58 µM (inactive) | 15 µM (inactive) | 4.68 µM (inactive) | 24 µM (inactive) | 12.6 µM (inactive) | 13.8 µM (inactive) | 14.1 µM (inactive) | 9.02 µM (inactive) | 19.4 µM (inactive) | 19.7 µM (inactive) | 9.23 µM (inactive) | 8.81 µM (inactive) | 8.43 µM (inactive) | 12.4 µM (inactive) | 2.21 µM (inactive)
3 | Cc1ccc(C(=O)c2[nH]c(NCc3ccccc3)c(C(=S)Nc3ccccc3)c2N)cc1 | 9.2 µM (inactive) | 14.3 µM (inactive) | 13.8 µM (inactive) | 1.29 µM (inactive) | 2.28 µM (inactive) | 2.01 µM (inactive) | 1.95 µM (inactive) | 2.88 µM (inactive) | 11.5 µM (inactive) | 13.3 µM (inactive) | 11.9 µM (inactive) | 12.9 µM (inactive) | 2.86 µM (inactive) | 10.8 µM (inactive) | 14.7 µM (inactive) | 2.38 µM (inactive) | 10.3 µM (inactive) | 11.2 µM (inactive) | 11.8 µM (inactive) | 5.32 µM (inactive)
4 | C=C(C)[C@@H]1CC[C@]2(C(=O)O)CC[C@]3(C)[C@H](CC[C@@H]4[C@@]5(C)CC(=O)C(C)(C)[C@@H]5CC[C@]43C)[C@@H]12 | 5.56 µM (inactive) | 12.2 µM (inactive) | 12.5 µM (inactive) | 5.9 µM (inactive) | 8.77 µM (inactive) | 8.36 µM (inactive) | 8.65 µM (inactive) | 6.64 µM (inactive) | 9.38 µM (inactive) | 10.9 µM (inactive) | 7.24 µM (inactive) | 14.8 µM (inactive) | 6.08 µM (inactive) | 4.52 µM (inactive) | 11.7 µM (inactive) | 7.23 µM (inactive) | 14.9 µM (inactive) | 11 µM (inactive) | 3.28 µM (inactive) | 7.29 µM (inactive)
5 | COc1ccc(N2C(=O)C3c4[nH]c5c(C)cccc5c4C4CCC(C(C)(C)C)CC4C3C2=O)cc1 (stereo not given) | 7 µM (inactive) | > 10 µM (inactive) | > 10 µM (inactive) | 2.48 µM (inactive) | 5.13 µM (inactive) | 2.16 µM (inactive) | > 10 µM (inactive) | 3.56 µM (inactive) | > 10 µM (inactive) | 4.19 µM (inactive) | 3.61 µM (inactive) | 5.61 µM (inactive) | 9.42 µM (inactive) | > 10 µM (inactive) | > 10 µM (inactive) | 6.62 µM (inactive) | > 10 µM (inactive) | 9.14 µM (inactive) | > 10 µM (inactive) | 2.72 µM (inactive)
6 | O=C(O)Cc1nc[nH]c1C(=O)O | > 100 µM (inactive) | > 100 µM (inactive) | > 100 µM (inactive) | > 100 µM (inactive) | > 100 µM (inactive) | > 100 µM (inactive) | > 100 µM (inactive) | > 100 µM (inactive) | > 100 µM (inactive) | > 100 µM (inactive) | > 100 µM (inactive) | > 100 µM (inactive) | > 100 µM (inactive) | > 100 µM (inactive) | > 100 µM (inactive) | > 100 µM (inactive) | > 100 µM (inactive) | > 100 µM (inactive) | > 100 µM (inactive) | > 100 µM (inactive)
7 | CC(=O)Nc1ccc2c3c(cc(O)c2c1)N(C(=O)CCCCCC(=O)Nc1ccc2c4c(cc(O)c2c1)N(C(=O)OC(C)(C)C)CC4CCl)CC3CCl (stereo not given) | 12.3 µM (inactive) | > 100 µM (inactive) | 0.463 µM (active) | 1.42 µM (inactive) | 2.73 µM (inactive) | 1.92 µM (inactive) | 4.09 µM (inactive) | 0.233 µM (active) | 1.55 µM (inactive) | 0.8 µM (active) | 2.99 µM (inactive) | 0.646 µM (active) | 2.37 µM (inactive) | 1.76 µM (inactive) | 1.6 µM (inactive) | 2.17 µM (inactive) | 0.541 µM (active) | 18 µM (inactive) | 1.39 µM (inactive) | > 100 µM (inactive)
8 | Nc1ncnn2c(C3OC(CO)C(O)C3O)ccc12 (stereo not given) | 0.155 µM (active) | 0.235 µM (active) | 0.23 µM (active) | 0.426 µM (active) | 0.107 µM (active) | 0.0201 µM (active) | 0.0832 µM (active) | 0.164 µM (active) | 0.235 µM (active) | 0.137 µM (active) | 0.182 µM (active) | 0.236 µM (active) | 0.106 µM (active) | 0.148 µM (active) | 0.421 µM (active) | 0.123 µM (active) | 0.291 µM (active) | 0.214 µM (active) | 0.136 µM (active) | 0.12 µM (active)
9 | O/N=C1\CC2(N3CCOCC3)CCC1(c1ccccc1)CC2 | > 100 µM (inactive) | > 100 µM (inactive) | > 100 µM (inactive) | > 100 µM (inactive) | > 100 µM (inactive) | > 100 µM (inactive) | > 100 µM (inactive) | > 100 µM (inactive) | > 100 µM (inactive) | > 100 µM (inactive) | > 100 µM (inactive) | > 100 µM (inactive) | > 100 µM (inactive) | > 100 µM (inactive) | > 100 µM (inactive) | > 100 µM (inactive) | > 100 µM (inactive) | > 100 µM (inactive) | > 100 µM (inactive) | > 100 µM (inactive)
10 | O=C(O)c1cccc(OCCOc2cccc(C(=O)O)c2[N+](=O)[O-])c1[N+](=O)[O-] | > 100 µM (inactive) | > 100 µM (inactive) | > 100 µM (inactive) | > 100 µM (inactive) | > 100 µM (inactive) | > 100 µM (inactive) | > 100 µM (inactive) | > 100 µM (inactive) | > 100 µM (inactive) | > 100 µM (inactive) | > 100 µM (inactive) | > 100 µM (inactive) | > 100 µM (inactive) | > 100 µM (inactive) | > 100 µM (inactive) | > 100 µM (inactive) | > 100 µM (inactive) | > 100 µM (inactive) | > 100 µM (inactive) | > 100 µM (inactive)
